The results in this text go back to patent US20230002346A1, “NEW COMPOUNDS AND METHODS” (BenevolentAl Bio Limited, priority 2019, published 2023).

The structures appear in SMILES notation.

The data set can be described thus: Rat PK profile (bioavailability, clearance, half-life). The conditions noted are these: male, Sprague Dawley, plasma, i.v. dose 1 mg/kg. In kind it is in vivo. The method, then:
Male Sprague Dawley Rats 300-350 g (Charles River, UK) were group housed, n=3, under a 12 h light/dark cycle with food and water available ad libitum. At 17:00 on the day prior to dosing all food was removed. On the day of dosing animals were weighed, tail marked and dosed via oral gavage with compound at 3 mg/kg in a volume of 5 mL/kg. Animals were culled at 30 min, 1 h and 4 h post dose via intra-peritoneal administration of pentobarbital. Post mortem blood was withdrawn via cardiac puncture, and briefly stored in K2 EDTA blood tubes on ice before being spun at 14,000 g for 4 min at 4° C. Plasma was withdrawn into a 96 well plate, placed on dry ice and stored at −80° C. Brains were quickly dissected and placed on dry ice before storage at −80° C. Bioanalysis of plasma and brain samples is performed as detailed below. Methods were prepared with guidance from industry standard documents.^i,ii
A 10 mM DMSO stock is used to prepare spiking solutions of test compound in the range of 10-100,000 ng/mL in diluent (MeCN:water, 1;1). Calibration lines are prepared in control male Sprague-Dawley Rat plasma at known concentrations in the range of 1-10000 ng/mL by spiking 2.5 μL of calibration spiking solution into 25 μL control plasma. Experimental samples are thawed to RT and 25 μL aliquots are extracted alongside the calibration lines using protein precipitation (agitation for at least 5 min at RT with 400 μL of MeCN containing 25 ng/mL tolbutamide as an internal standard). Protein precipitates are separated from the extracted test compound by centrifugation at 4000 rpm for 5 min, 4° C. The resulting supernatants are diluted in a ratio of 1:2 with a relevant diluent (e.g. 0.1% formic acid in water or 1:1 MeOH:water). Samples are analysed by UPLC-MS/MS on either an API6500 QTrap or Waters 30 TQS mass spectrometer using previously optimised analytical MRM (multiple reaction monitoring) methods, specific to the test compound. The concentration of test compound in isolated samples is determined following analysis of the samples against the two replicates of the calibration line, injected before and after the sample set with an appropriate regression and weighting used. Only samples within 20% of the expected test concentration are included in the calibration line and any samples that fall outside of the limits of the calibration line will be deemed to be less than or above the limit of quantification (LLoQ/ALoQ).
Pharmacokinetic parameters such as bioavailability (% F), clearance (CL), half-life (T½) and volume of distribution are calculated by non-compartmental analysis using Phoenix Winnonlin 64 software (build 8.0). The bioavailability was calculated from p.o. dosed rats, whereas the clearance and half-life were calculated from i.v. dosed rats. Briefly, in vivo plasma concentrations, timepoints and dose values are imported into the software in a compatible format. Plasma concentration for each animal is plotted against time, and the elimination phase identified and selected. The area under the curve for each plot is calculated using a linear trapezoidal linear interpolation from which pharmacokinetic parameters can subsequently be determined. […] Compounds of the invention have much improved clearance (CL) and half-life (T½) compared to the reference examples.

Compound `O=C(Nc1ccc(OC(F)(F)Cl)cc1)c1ccc(=O)n(-c2ccccc2)c1` [Example 56, N-[4-[Chloro(difluoro)methoxy]phenyl]-6-oxo-1-phenyl-pyridine-3-carboxamide] displayed a clearance (iv) of 1.9 mL/min/kg. Moreover, under “iv, read-out: T½ (converted)”, the half-life is 20 h. Where the note is “po, p.o. dose 3 mg/kg”, this compound returned a bioavailability of 97%.

The term clearance denotes the volume of plasma or blood freed of the substance per unit of time. High values mean efficient removal, low ones inefficient removal. As a reminder, the bioavailability is the share of a dose that reaches the circulation, judged against a reference dose that is usually intravenous. Read a high bioavailability as much systemic uptake.
